According to PMC5786788, “Antimicrobial Octapeptin C4 Analogues Active against Cryptococcus Species” (Antimicrobial Agents and Chemotherapy, 2018):
Read-outs that look alike come from different tables or passages of the source. Where a SMILES comes first, the peptide text is derived from it. Bridges are numbered along the chain shown (N, C = ends). [ ]: non-standard residue; d: D form. The star is where a group is joined. Decanoyl(3R-OH) = CCCCCCC[C@@H](O)CC(=O)*; dDab = NCC[C@@H](N)C(=O)O; Dab = NCC[C@H](N)C(=O)O

Tests used:
[1] = test system: C. neoformans var. neoformans; experiment: microbe, parasite or virus in culture; conditions: Cryptococcus neoformans, no visible growth
Description: (§1) The MICs of the yeast strains for PMB, PME, and octapeptin C4 and its derivatives were determined in accordance with CLSI M27-A2 guidelines using YNB (Becton Dickinson, USA) medium supplemented with 10 mM ammonium sulfate and 2% glucose, a final inoculum concentration of 1.5 × 10^3 to 2.0 × 10^3 cells/ml, and incubation at 35°C for 72 h ([39]). […] The MICs for PMB, PME, and octapeptin C4 for A. fumigatus were determined in accordance with the CLSI M38-A2 guidelines ([40]) using synthetic RPMI 1640 medium (with glutamine, without bicarbonate and with phenol red; Life Technologies, USA). The final inoculum concentration was 0.4 × 10^4 to 5 × 10^4 cells/ml, with incubation at 35°C for 48 h. […] All assays were completed in triplicate. Fluconazole was used as a positive control where the MIC was determined at both 50% growth (in accordance with CLSI M27-A2 guidelines) and when there was a “no visible growth” reading.

[2] = test system: C. neoformans var. gattii; experiment: microbe, parasite or virus in culture; conditions: no visible growth
Description: as §1

[3] = test system: C. neoformans var. grubii; experiment: organism not typed
Description: The MICs of the yeast strains for PMB, PME, and octapeptin C4 and its derivatives were determined in accordance with CLSI M27-A2 guidelines using YNB (Becton Dickinson, USA) medium supplemented with 10 mM ammonium sulfate and 2% glucose, a final inoculum concentration of 1.5 × 10^3 to 2.0 × 10^3 cells/ml, and incubation at 35°C for 72 h ([39]). […] The MICs for PMB, PME, and octapeptin C4 for A. fumigatus were determined in accordance with the CLSI M38-A2 guidelines ([40]) using synthetic RPMI 1640 medium (with glutamine, without bicarbonate and with phenol red; Life Technologies, USA). The final inoculum concentration was 0.4 × 10^4 to 5 × 10^4 cells/ml, with incubation at 35°C for 48 h. […] All assays were completed in triplicate. Fluconazole was used as a positive control where the MIC was determined at both 50% growth (in accordance with CLSI M27-A2 guidelines) and when there was a “no visible growth” reading. […]

[4] = test system: C. neoformans H99 (cap59Δ); format: cell-based, Cryptococcus neoformans; conditions: Table 2; triplicate, values consistent across replicates
Description: The different susceptibility of C. neoformans and C. gattii to PMB compared to other pathogenic fungi such as C. albicans and A. fumigatus has been postulated to arise from differences in cell surface composition ([38]). One key difference is the presence of a negatively charged polysaccharide capsule in Cryptococcus spp. proposed to concentrate the cationic lipopeptides at the cell surface ([38]). To examine this potential interaction for the octapeptin series, a C. neoformans cap59Δ mutant strain deficient in the secretion of negatively charged glucuronoxylomannan (an α1–3-linked mannan containing β1,2 and β1,4 xylosyl substitutions, as well as β1,2-linked glucuronyl residues) ([41], [42]), was tested against octapeptin C4 in comparison to PMB.
(§2) Fungal strains were stored in 15% glycerol at −80°C until use. The fungal strains used were H99 (C. neoformans type strain) ([55]), cap59Δ (an acapsular H99 mutant) ([56]), ATCC 90113 (C. neoformans), MMRL 2651 (C. gattii), ATCC 90028 (Candida albicans), ATCC 90030 (Candida glabrata), ATCC 22019 (Candida parapsilosis), and ATCC MYA 3626 (Aspergillus fumigatus). Yeasts were cultured in liquid (1% yeast extract, 2% Bacto peptone, 2% glucose) or solid (additional 2% agar) yeast extract-peptone-dextrose (YPD) media at 30°C and maintained at 4°C for no longer than 2 weeks. A. fumigatus was prepared on potato dextrose medium at 30°C and maintained at 4°C for no longer than 2 weeks.
as §1

[5] = test system: C. gattii MMRL 2651
Description: (§3) A broth microdilution assay was initially used to characterize the antifungal activity of the cyclic lipopeptides ([39], [40]). […] common pathogenic yeasts (C. albicans, C. glabrata, C. parapsilosis, C. neoformans, and C. gattii) and one pathogenic mold (A. fumigatus) were tested to determine the MIC for each compound (Table 1) using broth microdilution. […] The only structural difference between these molecules is the presence of a phenylalanine residue at position 6 in PMB; in PME a D-leucine is present at this location (Fig. 1).
as §2, §1

[6] = test system: C. neoformans ATCC 90113; conditions: ATCC 90113, 72 h
Description: as §3, §2, §1

[7] = test system: C. neoformans H99; conditions: H99, 72 h
Description: as §3, §2, §1

[8] = Table 2, C. gattii, triplicate, values consistent across replicates

C[C@@H]1[C@H](O)[C@@H](C)/C=C/C=C/C=C/C=C/C=C/C=C/C=C/[C@H](O[C@@H]2O[C@H](C)[C@@H](O)[C@H](N)[C@@H]2O)C[C@@H]2O[C@](O)(C[C@@H](O)C[C@@H](O)[C@H](O)CC[C@@H](O)C[C@@H](O)CC(=O)O[C@H]1C)C[C@H](O)[C@H]2C(=O)O [Amphotericin B, amphotericin B]
3.13 µg/mL: MIC ([1]; strain WM 01.127 (USA)) | MIC ([1]; strain WM 02.141 (Russia)) | MIC ([1]; strain WM 02.143 (Russia)) | MIC ([1]; strain WM 02.37 (Canada)) | MIC ([1]; strain WM 04.168 (Chile)) | MIC ([1]; strain WM 04.171 (Thailand, environmental)) | MIC ([1]; strain WM 05.467 (Brazil, environmental)) | MIC ([1]; strain WM 05.515 (Peru)) | MIC ([1]; strain WM 09.109 (Italy, environmental)) | MIC ([1]; strain WM 09.112 (USA)) | MIC ([1]; strain WM 10.119 (Australia)) | MIC ([1]; strain WM 629 (Australia)) | MIC ([1]; strain WM 1706 (Argentina)) | MIC ([1]; strain WM 1740 (Chile)) | MIC ([1]; strain WM 2207 (USA, environmental)) | MIC ([1]; strain WM 2242 (USA)) | MIC ([1]; strain WM 2530 (USA)) | MIC ([2]; Cryptococcus neoformans, ATCC32269, strain ATCC 32269) | MIC ([2]; Cryptococcus neoformans, ATCC32609, strain ATCC 32609 (NIH444)) | MIC ([2]; Cryptococcus neoformans, ATCC34878, strain ATCC 34878) | MIC ([2]; Cryptococcus neoformans, ATCC34882, strain ATCC 34882) | MIC ([2]; Cryptococcus neoformans, strain 93/980 (CSF France)) | MIC ([2]; Cryptococcus neoformans, strain 94/943-6 (CSF Mexico)) | MIC ([2]; Cryptococcus neoformans, strain 94/943-8 (CSF Mexico)) | MIC [3] | MIC ([3]; Cryptococcus neoformans) | MIC ([3]; strain 486 (USA), no visible growth) | MIC ([3]; strain 488 (AIDS+, pre-HAART USA), no visible growth) | MIC ([3]; strain 490 (USA), no visible growth) | MIC ([3]; strain 496 (USA), no visible growth) | MIC ([3]; strain 500 (USA), no visible growth) | MIC ([3]; strain 502 (ARR3+ USA), no visible growth) | MIC ([3]; strain 505 (India), no visible growth) | MIC ([3]; strain 507 (India), no visible growth) | MIC ([3]; strain 510 (VNII India), no visible growth) | MIC ([3]; strain 512 (India), no visible growth) | MIC ([3]; strain 516 (India), no visible growth) | MIC ([3]; strain 518 (VNI India), no visible growth) | MIC ([3]; strain 522 (India), no visible growth) | MIC ([3]; strain 525 (India), no visible growth) | MIC ([3]; strain 1188 (Japan lung), no visible growth) | MIC ([3]; strain 1194 (Italy), no visible growth) | MIC ([3]; strain 1196 (Botswana CSF/AIDS), no visible growth) | MIC ([3]; strain 1197 (Botswana CSF/AIDS), no visible growth) | MIC ([3]; strain H99O (lab strain), no visible growth) | MIC ([3]; strain H99 stud (lab strain), no visible growth)
12.5 µg/mL: MIC ([2]; Cryptococcus neoformans, strain R270 (Vancouver Island)) | MIC ([2]; strain 96/1120-2 (CSF HIV2 France))

CCCCCCC[C@@H](O)CC(=O)N[C@H](C)C(=O)N[C@H]1CCNC(=O)[C@H](CC(C)C)NC(=O)[C@H](CCN)NC(=O)[C@H](CCN)NC(=O)[C@H](CC(C)C)NC(=O)[C@@H](Cc2ccccc2)NC(=O)[C@H](CCN)NC1=O [Compound P1D] ({Decanoyl(3R-OH)}-[dA][Dab][Dab][dF]L[Dab][Dab]L; lactam 2-C)
6.25 µg/mL: MICs against various Cryptococcus strains: ATCC 90113 [6] | MICs against various Cryptococcus strains: H99 [7]
12.5 µg/mL: MICs against various Cryptococcus strains: H99 (cap59Δ) [4] | MICs against various Cryptococcus strains: MMRL 2651 [5, 8]

CCCCCCC[C@@H](O)CC(=O)N[C@@H](C)C(=O)N[C@H]1CCNC(=O)[C@H](CC(C)C)NC(=O)[C@H](CCN)NC(=O)[C@H](CCN)NC(=O)[C@H](CC(C)C)NC(=O)[C@@H](Cc2ccccc2)NC(=O)[C@H](CCN)NC1=O [Compound P1L] ({Decanoyl(3R-OH)}-A[Dab][Dab][dF]L[Dab][Dab]L; lactam 2-C)
12.5 µg/mL: MICs against various Cryptococcus strains: MMRL 2651 ([5]; 72 h) | MICs against various Cryptococcus strains: ATCC 90113 [6] | MICs against various Cryptococcus strains: H99 [7]
25.0 µg/mL: MICs against various Cryptococcus strains: H99 (cap59Δ) [4]

CCCCCCC[C@@H](O)CC(=O)N[C@H](CCN)C(=O)N[C@H]1CCNC(=O)[C@H](CC(C)C)NC(=O)[C@H](CCN)NC(=O)[C@H](CCN)NC(=O)[C@H](CC(C)C)NC(=O)[C@@H](Cc2ccccc2)NC(=O)[C@H](C)NC1=O [Compound P3] ({Decanoyl(3R-OH)}-[dDab][Dab]A[dF]L[Dab][Dab]L; lactam 2-C)
12.5 µg/mL: MICs against various Cryptococcus strains: H99 (cap59Δ) [4] | MICs against various Cryptococcus strains: MMRL 2651 [5, 8]
6.25 µg/mL: MICs against various Cryptococcus strains: ATCC 90113 [6] | MICs against various Cryptococcus strains: H99 [7]

CCCCCCC[C@@H](O)CC(=O)N[C@H](CCN)C(=O)N[C@H]1CCNC(=O)[C@H](CC(C)C)NC(=O)[C@H](CCN)NC(=O)[C@H](CCN)NC(=O)[C@H](CC(C)C)NC(=O)[C@@H](C)NC(=O)[C@H](CCN)NC1=O [Compound P4D] ({Decanoyl(3R-OH)}-[dDab][Dab][Dab][dA]L[Dab][Dab]L; lactam 2-C)
50.0 µg/mL: MICs against various Cryptococcus strains: H99 (cap59Δ) [4]
25.0 µg/mL: MICs against various Cryptococcus strains: MMRL 2651 ([5]; 72 h)
12.5 µg/mL: MICs against various Cryptococcus strains: ATCC 90113 [6] | MICs against various Cryptococcus strains: H99 [7]
